According to paper PMC4821771 (The Journal of steroid biochemistry and molecular biology, 2016):
Entries after “also recorded” stand apart in the source; their conditions may differ.

Assays:
[1] = system: CYP3A4; settings: cited from earlier work
[2] = system: human liver microsomes; test: Incubation of human liver microsomes with CYP3A4 inhibitors; settings: for decrease of total products: 50 μM 20(OH)D3, 30 min
[3] = system: human liver microsomes; test: Metabolism of 20; assay type: in vitro ADME; settings: for proportion of 20,25(OH)2D3:20,24R(OH)2D3:20,24S(OH)2D3 at the end of the time course: products of 20(OH)D3, human liver microsomes (Fig. S5A)
[4] = biological target: recombinant human CYP3A4 (Homo sapiens, UniProt P08684); test: Metabolism by CYP3A4 supersomes; assay type: in vitro ADME; settings: for Km / kcat: initial rates of formation of all products, substrate in 0.45% HP-β-CD, 60 nM CYP3A4, mean ± standard error of the curve fit; for proportion of 20,25(OH)2D3:20,24R(OH)2D3:20,24S(OH)2D3: products of 20(OH)D3, CYP3A4 (Fig. S3A)
[5] = system: SKMEL-188 melanoma cells; settings: cited from earlier work
[6] = system: human liver microsomes
[7] = high doses, up to 60 μg/kg in rodents; cited from earlier work
[8] = total product formation from 20(OH)D3, microsomes 1.5 mg/mL

recombinant human CYP3A4, sequence (P08684 2-503 limits assumed): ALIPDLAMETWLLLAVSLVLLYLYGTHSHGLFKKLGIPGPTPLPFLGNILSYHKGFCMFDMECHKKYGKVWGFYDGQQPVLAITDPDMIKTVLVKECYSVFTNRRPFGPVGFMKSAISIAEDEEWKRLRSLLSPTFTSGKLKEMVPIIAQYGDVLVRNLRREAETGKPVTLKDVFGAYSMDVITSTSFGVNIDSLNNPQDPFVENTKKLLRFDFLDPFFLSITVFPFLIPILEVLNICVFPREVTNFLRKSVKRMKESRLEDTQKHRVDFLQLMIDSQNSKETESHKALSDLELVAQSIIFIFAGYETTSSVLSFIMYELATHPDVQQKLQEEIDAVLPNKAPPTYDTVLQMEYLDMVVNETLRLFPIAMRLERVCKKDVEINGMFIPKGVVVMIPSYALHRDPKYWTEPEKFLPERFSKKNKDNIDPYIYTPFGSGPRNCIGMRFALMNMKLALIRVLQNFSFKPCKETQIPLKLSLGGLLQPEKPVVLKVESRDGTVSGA

C=C1CC[C@H](O)C/C1=C/C=C1\CCC[C@]2(C)[C@@H]([C@H](C)CCCC(C)(C)O)CC[C@@H]12 [25(OH)D3, 25-hydroxyvitamin D3]
catalytic efficiency for metabolism by CYP3A4 [1]: 1.32 min⁻¹ µM⁻¹

CC[C@]1(C)C[C@@H](OC(=O)CSc2nnc(N)[nH]2)[C@]2(C)[C@H](C)CC[C@]3(CCC(=O)[C@H]32)[C@@H](C)[C@@H]1O [azamulin]
decrease of total products ([2]; 1 μM azamulin): 60.0%
decrease of total products ([2]; 10 μM azamulin): 75.9%
inhibition of production of 20,24R(OH)2D3, 20,24S(OH)2D3 and 20,25(OH)2D3 ([2]; human liver microsomes, abstract statement): almost completely inhibited

C=C1CC[C@H](O)C/C1=C/C=C1\CCC[C@@]2(C)[C@H]1CC[C@@H]2[C@@](C)(O)CC[C@H](O)C(C)C [20,24S(OH)2D3, 20,24S-dihydroxyvitamin D3]
proportion of 20,25(OH)2D3:20,24R(OH)2D3:20,24S(OH)2D3 at the end of the time course [3]: 0.16
Km [4]: 86.9 ± 44.3 µM
kcat [4]: 0.275 ± 0.0717 s⁻¹
proportion of 20,25(OH)2D3:20,24R(OH)2D3:20,24S(OH)2D3 [4]: 0.14

C=C1CC[C@H](O)C/C1=C/C=C1\CCC[C@@]2(C)[C@H]1CC[C@@H]2[C@@](C)(O)CC[C@@H](O)C(C)C [20,24R(OH)2D3, 20,24R-dihydroxyvitamin D3]
inhibition of colony formation compared with 20(OH)D3 [5]: more potent; also recorded: more strongly than the parent 20(OH)D3
proportion of 20,25(OH)2D3:20,24R(OH)2D3:20,24S(OH)2D3 at the end of the time course [3]: 0.47
Km [4]: 332 ± 194 µM
kcat [4]: 1.08 ± 0.475 s⁻¹
proportion of 20,25(OH)2D3:20,24R(OH)2D3:20,24S(OH)2D3 [4]: 0.41

C=C1CC[C@H](O)C/C1=C/C=C1\CCC[C@@]2(C)[C@H]1CC[C@@H]2[C@@](C)(O)CCCC(C)(C)O [20,25(OH)2D3, 20,25-dihydroxyvitamin D3]
inhibition of colony formation compared with 20(OH)D3 [5]: more potent; also recorded: more strongly than the parent 20(OH)D3
Vmax ([3]; formation of the named product from 20(OH)D3, as given in the text): 134.2 ± 36.0 pmol/min/mg protein
proportion of 20,25(OH)2D3:20,24R(OH)2D3:20,24S(OH)2D3 at the end of the time course [3]: 1
further metabolism by CYP3A4 ([4]; 25 μM substrate in 0.45% HP-β-CD, 60 nM CYP3A4, one hour): essentially no products formed
proportion of 20,25(OH)2D3:20,24R(OH)2D3:20,24S(OH)2D3 [4]: 1

NNC(=O)c1ccncc1 [isoniazid]
effect on peaks corresponding to 20,25(OH)2D3, 20,24R(OH)2D3/20,26(OH)2D3, 20,24S(OH)2D3 and H6 [6]: markedly decreased

C=C1/C(=C\C=C2/CCC[C@]3(C)[C@@H]([C@H](C)CCCC(C)(C)O)CC[C@@H]23)C[C@@H](O)C[C@@H]1O [1,25(OH)2D3, 1,25-dihydroxyvitamin D3]
efficiency of metabolism by CYP3A4 [1]: 0.70 min^−1μM^−1

C=C1CC[C@H](O)C/C1=C/C=C1\CCC[C@@]2(C)[C@H]1CC[C@@H]2[C@@](C)(O)CCCC(C)C [20(OH)D3, 20S-Hydroxyvitamin D3]
Km [3, 8]: 165 ± 56 µM
Vmax [3, 8]: 292.6 ± 60.3 min⁻¹
hypercalcaemia [7]: does not induce hypercalcaemia
more products with substrate in HP-β-CD than when added from acetonitrile ([4]; CYP3A4 supersomes, not shown): 25 fold
metabolised faster than 25(OH)D3 (times) ([4]; formation of total products, 50 μM substrate (Fig. S3B)): approximately 30 times
Km [4]: 32.6 ± 2.8 µM
kcat [4]: 0.295 ± 0.0083 s⁻¹
substrate consumed by the end of the incubation ([4]; time course of 20(OH)D3 metabolism by CYP3A4 (Fig. S3A)): 18%
